Source: patent US9593305B2, “Differentiation of pluripotent stem cells” (Janssen Biotech, Inc., priority 2008, dated 2017)

Test system: H1 human embryonic stem cells
Test: Definitive endoderm formation with GDF family members, SOX17 and cell number (Example 13)
Assay type: cell-based
Conditions: for SOX17 expression, reagent alone: 20 ng/ml Wnt3a or 2.5 μM compound alone, four days; for SOX17 induction in combination with GDF-8: 2.5 μM compound with 100 ng/ml GDF-8, exceeding activin A/Wnt3a positive control
Method: Stock cultures of human embryonic stem cells (H1 human embryonic stem cell line) were maintained in an undifferentiated, pluripotent state on reduced growth factor […]™ (BD Biosciences; Cat #356231)-coated dishes in MEF conditioned medium with passage on average every four days. Passage was performed by exposing cell cultures to a solution of 1 mg/ml dispase (Invitrogen; Cat #17105-041) for 5 to 7 minutes at 37° C. followed by rinsing the monolayer with MEF conditioned culture medium and gentle scraping to recover cell clusters. Clusters were centrifuged at low speed to collect a cell pellet and remove residual dispase. Cell clusters were split at a 1:3 or 1:4 ratio for routine maintenance culture or a 1:1 ratio for immediate assay. All human ES cell lines were maintained at passage numbers less than 50 and routinely evaluated for normal karyotype and absence of mycoplasma.
Cell clusters were evenly resuspended in MEF conditioned medium supplemented with 8 ng/ml bFGF and seeded onto reduced growth factor […]™-coated 96-well Packard VIEWPLATES (PerkinElmer; Cat #6005182) in volumes of 0.1 ml/well. Daily feeding was conducted by aspirating spent culture medium from each well and replacing with an equal volume of fresh medium. Plates were maintained at 37° C., 5% CO2 throughout the duration of assay.
The assay was initiated by aspirating the culture medium from each well and adding back aliquots (100 μl) of test medium. Test conditions were performed in triplicate over a total four-day assay period, feeding on day 1 and day 3 by aspirating and replacing the medium from each well with fresh test medium. Various members of the GDF family of proteins were obtained for testing as follows: GDF-3 (PeproTech; Cat #120-22); GDF-5 (DePuy Orthopaedics, Inc., a Johnson & Johnson company); GDF-8 (R&D Systems; Cat #788-G8); GDF-10 (R&D Systems; Cat #1543-BP); GDF11 (PeproTech; Cat #120-11); GDF-15 (R&D Systems; Cat #957-GD). On the first day of assay, all wells received an aliquot (80 μl) of basal medium DMEM:F12 medium (Invitrogen; Cat #11330-032) supplemented with 0.5% fetal bovine serum (Hyclone; Cat #SH30070.03). A series of five different control or experimental test samples was created to evaluate activin A or various GDFs in combination with Wnt3a or Compound 34 or Compound 56. These test samples were added in 20 μl aliquots (5× concentrated) to appropriately matched assay wells to yield a final assay volume of 100 μl in each well at the final assay conditions indicated. In the first set of control samples, the following conditions were tested: 1) no additive (i.e. no supplementary growth factor or small molecule); 2) 100 ng/ml activin A (PeproTech; Cat #120-14) in combination with 20 ng/ml Wnt3a (R&D Systems; Cat #1324-WN/CF); 3) 20 ng/ml Wnt3a alone; 4) Compound 34 alone (2.5 μM) without any growth factor or small molecule; 5) Compound 56 alone (2.5 μM) without any growth factor or small molecule. In the second set of test samples, the following conditions were tested in combination with 100 ng/ml GDF3: 1) no additive (i.e. GDF-3 alone); 2) 20 ng/ml Wnt3a; 3) 20 ng/ml Wnt3a with Compound 34 (2.5 μM); 4) Compound 34 (2.5 μM); 5) Compound 56 (2.5 μM); and 6) 20 ng/ml Wnt3a with Compound 56 (2.5 μM). In the third set of test samples, each of the six conditions was combined with 100 ng/ml GDF-5. In the fourth set of test samples, each of the six conditions was combined with 100 ng/ml GDF-8. In the fifth set of test samples, each of the six conditions was combined with 100 ng/ml GDF-10. In the sixth set of test samples, each of the six conditions was combined with 100 ng/ml GDF-11. In the seventh set of test samples, each of the six conditions was combined with 100 ng/ml GDF-15. On the third day of assay, all wells for all test samples, received 100 ng/ml Activin A or 100 ng/ml respective GDF growth factor, without Wnt3a or Compound 34 or Compound 56, diluted into DMEM:F12 medium supplemented with 2% FBS. […]

| Compound | SOX17 expression, reagent alone | SOX17 induction in combination with GDF-8 |
| --- | --- | --- |
| O=C1CCN2CCN(CC2)Cc2cc(Cl)cc(c2)Nc2ncnc(n2)-c2cncc(c2)CCCN1 [Compound 34, 5-Chloro-1,8,10,12,16,22,26,32-octaazapentacyclo[24.2.2.1˜3.7˜0.1˜9,13˜0.1˜14.18˜]tritriaconta-3(33), 4,6,9(32), 10,12,14(31), 15,17-nonaen-23-one] | failed to induce SOX17 expression | robust induction of SOX17 |
| Cc1c[nH]c(-c2cnc(NCCNc3ccc(C#N)cn3)nc2-c2ccc(Cl)cc2Cl)n1 [Compound 56, 6-[(2-{[4-(2,4-Dichlorophenyl)-5-(4-methyl-1H-imidazol-2-yl)pyrimidin-2-yl]amino}ethyl)amino]pyridine-3-carbonitrile] | failed to induce SOX17 expression | robust induction of SOX17 |
